In data set [1] the test system is ShET-1 and ShET-2. The format is cell-based, Shigella flexneri 2a.
Data set [2] has as its target T1, Shiga toxin (Shigella dysenteriae, UniProt Q7BQ98+Q9FBI2). The format is cell-based, Shigella dysenteriae 1.
Another data set concerns the target stable toxin (YST-I) (Yersinia enterocolitica, UniProt P07593). The data set is described as follows: Ussing chamber assay, effect of cadaverine on YST-I. Type of data set: cell-based.
A further data set concerns stable toxin (YST-11). The data set is described as follows: Ussing chamber assay, effect of cadaverine on YST-11. The format is cell-based, Yersinia enterocolitica. As to conditions: toxin mucosal side; cadaverine (400 μM) both sides.
In data set [3] the test system is cytolethal distending toxin. The data set is described as follows: Ussing chamber assay, effect of cadaverine on cytolethal distending toxin. The format is cell-based, Campylobacter jejuni.
A further data set deals with cholera toxin (Vibrio cholerae serotype O1, UniProt P01555+P01556). Type of data set: cell-based.
A further data set deals with heat stable toxin (STa). The data set is described as follows: Ussing chamber assay, effect of cadaverine on heat stable toxin (STa). Type of data set: cell-based, enterotoxigenic Escherichia coli.
The next data set relates to Tsh-associated toxin. The data set is described as follows: Ussing chamber assay, effect of cadaverine on Tsh-associated toxin. The format is cell-based, avian pathogenic Escherichia coli. As to conditions: toxin mucosal side; cadaverine (400 μM) both sides.
Data set [4] has as its system ShET-1 and ShET-2. The data set is described as follows: Fluid accumulation in ileal loops, effect of cadaverine. The format is in vivo, Shigella flexneri 2a. As to conditions: cadaverine 400 μM unless otherwise indicated.
The target in data set [5] is T1, Shiga toxin. The conditions noted are these: cadaverine 400 μM unless otherwise indicated.
A further data set has as its system BS103. As to conditions: T84 monolayers, mean ± SEM.
For data set [6], the system named is S. flexneri-induced PMN transepithelial migration. The data set is described as follows: PMN transepithelial migration assay across T84 cell monolayers.
In data set [7] the test system is S. flexneri 2a strain 2457T. Type of data set: cell-based, Shigella flexneri 2a. The conditions noted are these: 2457T + 1 mM supplement present only during the two hour invasion period.
The test system of the next data set is mxiA::lacZ. The format is cell-based, S. flexneri 2a.
In another data set the test system is spa47::lacZ. The format is cell-based, S. flexneri 2a.
The next data set has as its system ipaB::lacZ. The format is cell-based, S. flexneri 2a.
The subject of data set [8] is representative virulence genes. Type of data set: cell-based, S. flexneri 2a.
[9] abbreviates: cadaverine 400 μM unless otherwise indicated.
Where [10] appears, read: toxin mucosal side, cadaverine (400 μM) both sides.

The structures appear in SMILES notation. Read-outs that look alike come from different tables or passages of the source.

T1 sequence (Q9FBI2 23-315 limits assumed): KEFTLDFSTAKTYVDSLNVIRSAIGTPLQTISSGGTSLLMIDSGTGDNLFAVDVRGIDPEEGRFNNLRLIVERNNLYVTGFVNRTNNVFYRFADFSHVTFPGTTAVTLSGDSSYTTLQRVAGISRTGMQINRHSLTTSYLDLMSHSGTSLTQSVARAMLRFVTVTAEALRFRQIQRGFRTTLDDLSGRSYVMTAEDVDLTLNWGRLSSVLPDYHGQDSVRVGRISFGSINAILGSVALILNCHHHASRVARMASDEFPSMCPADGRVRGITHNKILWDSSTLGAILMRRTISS
T1 sequence (Q7BQ98 21-89 limits assumed): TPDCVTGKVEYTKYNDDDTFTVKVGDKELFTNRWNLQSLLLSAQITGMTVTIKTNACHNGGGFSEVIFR
Chain of cholera toxin (P01555 19-258 limits assumed): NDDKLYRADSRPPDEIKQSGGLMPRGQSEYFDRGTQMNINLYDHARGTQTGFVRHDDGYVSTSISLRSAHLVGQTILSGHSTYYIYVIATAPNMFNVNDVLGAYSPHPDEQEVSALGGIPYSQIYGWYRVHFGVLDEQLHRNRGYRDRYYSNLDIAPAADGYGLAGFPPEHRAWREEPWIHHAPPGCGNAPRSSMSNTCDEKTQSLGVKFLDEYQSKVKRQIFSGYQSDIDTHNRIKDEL
Chain of cholera toxin (P01556 22-124 limits assumed): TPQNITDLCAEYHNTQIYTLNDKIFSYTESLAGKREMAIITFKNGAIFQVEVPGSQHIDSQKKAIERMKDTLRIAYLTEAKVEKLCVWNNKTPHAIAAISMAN

In the case of `NCCCCCN` [cadaverine, 1,5-diaminopentane], the “Effect of Cadaverine, enterotoxicity in Ussing chambers” value was “blocked” in the data set on ShET-1 and ShET-2 [1]; “blocked;” on Shiga toxin [2] (setting [9]); “completely” at stable toxin (YST-I) (setting [9]); “completely” in data set [3] (setting [9]); “none” at cholera toxin (setting [9]); “none” with heat stable toxin (STa) (setting [9]). Besides, the “ΔIsc + cadaverine” value with ShET-1 and ShET-2 [1] is 2.7; at Shiga toxin [2] (setting [10]), −13.6; at stable toxin (YST-I) (setting [10]) it was −11.0; in the data set with stable toxin (YST-11), 32.4; in data set [3] (setting [10]), −18.7; on cholera toxin (setting [10]) it was 70.9. The entries for the “ΔIsc + cadaverine” value with heat stable toxin (STa) (setting [10]) and in the data set on Tsh-associated toxin were 75.9 and 23.3, respectively. In the data set on ShET-1 and ShET-2 [1], the “ΔIsc as % of the value in tissues not pretreated” value is recorded as 40%. The “Effect of Cadaverine, fluid accumulation in ileal loops” value in the data set on ShET-1 and ShET-2 [4] is “both completely”. At Shiga toxin [5], the “Effect of Cadaverine, cytotoxicity in Vero cells” value is “none”. Further, the entries for the “% Association BS103” value in the data set with BS103 (100 μM cadaverine), with BS103 (300 μM cadaverine) and in the data set with BS103 (500 μM cadaverine) were 4.37 ± 1.64%, 3.14 ± 0.75% and 2.11 ± 0.90%, respectively. The “% Internalization BS103” value in the data set on BS103 (100 μM cadaverine) is given as 0.08 ± 0.02%; in the data set on BS103 (300 μM cadaverine), 0.03 ± 0.01%; in the data set with BS103 (500 μM cadaverine), 0.01 ± 0.01%. The “ability of S. flexneri to promote PMN transepithelial migration” value in data set [6] (2457T added basolaterally together with cadaverine 100, 300 and 500 μM (FIG. 3)) is recorded as “dose dependent decrease”. In addition, the “down regulation of S. flexneri-induced PMN transepithelial migration” value in data set [6] (T84 infected with 2457T 1 hr, then apical cadaverine 300 μM 30 min (FIG. 5)) is 60%.
On to `O=C(O)c1ccc[n+]([C@@H]2O[C@H](COP(=O)(O)O)[C@@H](O)[C@H]2O)c1` [nicotinic acid mononucleotide], for which, in data set [7], the “% FIREWORKS” value was 17% and the “% INVASION” value amounted to 82%.
For the compound `O=C(O)c1cccnc1` [nicotinic acid], in data set [7], the “% FIREWORKS” value was found to be 17% and the “% INVASION” value turned out to be 85%.
With `O=C(O)c1cccnc1C(=O)O` [quinolinate], in data set [7], the “% FIREWORKS” value is on record as 0%. Also, the “% INVASION” value in data set [7] came out at 0.5%. Further, the “Miller Units of activity” value was determined as 196.5 ± 2.0 Miller Units with mxiA::lacZ, 312.3 ± 6.5 Miller Units with spa47::lacZ and 140.5 ± 2.9 Miller Units in the data set with ipaB::lacZ. Besides, the “reduction of virulence gene expression” value in data set [8] was “about 50%”.

The values above are taken from patent publication US6780414B2 (priority 1998, dated 2004).
